Source: ChEMBL document CHEMBL1142563, “Isolation and structure of phakellistatin 14 from the Western Pacific marine sponge Phakellia sp” (2005)
Converted amounts (≈) assume the structure as drawn. Where a SMILES comes first, the peptide text is derived from it. [ ]: non-standard residue; d: D form. Met(O) = CS(=O)CC[C@H](N)C(=O)O

Test system: P388
Test: Cytotoxicity against mouse P388 cells
Format: functional
Details: read-out: ED50 (the source's name)

Question: For `CC[C@H](C)[C@@H]1NC(=O)[C@H](C)NC(=O)[C@H](CC[S+](C)[O-])NC(=O)[C@H](C)NC(=O)[C@H](CC(=O)OC)NC(=O)[C@H](Cc2ccccc2)NC(=O)[C@@H]2CCCN2C1=O` (stereo partly specified) [PHAKELLISTATIN 14] (cyclo(AIPFD(OMe)A[Met(O)])), which EC50 is on record?
Answer: 5 µg/mL (≈ 6.44 µM)
